Among the data in patent US20100197724A1, “6.5 -PYRROLOPIPERIDINE TACHYKININ RECEPTOR ANTAGONISTS” (priority 2007, published 2010) are IC50 values, retold here.

In the assay the target is T1, human neurokinin-1 receptor (NK1R) (Homo sapiens, UniProt P25103).
T1 construct: expressed in transfected cells
T1 sequence (P25103 whole entry): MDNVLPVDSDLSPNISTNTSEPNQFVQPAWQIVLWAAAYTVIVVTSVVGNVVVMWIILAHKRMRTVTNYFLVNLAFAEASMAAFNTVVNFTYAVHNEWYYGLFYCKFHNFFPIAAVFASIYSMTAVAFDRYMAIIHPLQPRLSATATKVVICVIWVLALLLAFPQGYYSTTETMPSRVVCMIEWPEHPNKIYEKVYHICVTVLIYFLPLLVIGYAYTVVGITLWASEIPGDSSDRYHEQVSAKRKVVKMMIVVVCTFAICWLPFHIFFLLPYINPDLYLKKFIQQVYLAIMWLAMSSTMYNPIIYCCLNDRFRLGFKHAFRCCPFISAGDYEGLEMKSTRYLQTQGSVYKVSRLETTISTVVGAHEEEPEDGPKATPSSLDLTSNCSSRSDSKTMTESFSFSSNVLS
The assay can be described thus: 125I-substance P binding assay of human NK1R expressed in COS or CHO cells. As to conditions: competition with 125I-substance P. The procedure:
Receptor Expression in COS: To express the cloned human neurokinin-1 receptor (NK1R) transiently in COS, the cDNA for the human NK1R was cloned into the expression vector pCDM9 which was derived from pCDM8 (INVITROGEN) by inserting the ampicillin resistance gene (nucleotide 1973 to 2964 from BLUESCRIPT SK+) into the Sac II site. Transfection of 20 ug of the plasmid DNA into 10 million COS cells was achieved by electroporation in 800 ul of transfection buffer (135 mM NaCl, 1.2 mM CaCl2, 1.2 mM MgCl2, 2.4 mM K2HPO4, 0.6 mM KH2PO4, 10 mM glucose, 10 mM HEPES pH 7.4) at 260 V and 950 uF using the IBI GENEZAPPER (IBI, New Haven, Conn.). The cells were incubated in 10% fetal calf serum, 2 mM glutamine, 100 U/ml penicillin-streptomycin, and 90% DMEM media (GIBCO, Grand Island, N.Y.) in 5% CO2 at 37° C. for three days before the binding assay.
Stable Expression in CHO: To establish a stable cell line expressing the cloned human NK1R, the cDNA was subcloned into the vector pRcCMV (INVITROGEN). Transfection of 20 ug of the plasmid DNA into CHO cells was achieved by electroporation in 800 ul of transfection buffer supplemented with 0.625 mg/ml Herring sperm DNA at 300 V and 950 uF using the IBI GENEZAPPER (IBI). The transfected cells were incubated in CHO media [10% fetal calf serum, 100 U/ml penicillin-streptomycin, 2 mM glutamine, 1/500 hypoxanthine-thymidine (ATCC), 90% IMDM media (JRH BIOSCIENCES, Lenexa, Kans.), 0.7 mg/ml G418 (GIBCO)] in 5% CO2 at 37° C. until colonies were visible. Each colony was separated and propagated. The cell clone with the highest number of human NK1R was selected for subsequent applications such as drug screening.
Assay Protocol using COS or CHO: The binding assay of human NK1R expressed in either COS or CHO cells is based on the use of ^125I-substance P (^125I-SP, from DU PONT, Boston, Mass.) as a radioactively labeled ligand which competes with unlabeled substance P or any other ligand for binding to the human NK1R. Monolayer cell cultures of COS or CHO were dissociated by the non-enzymatic solution (SPECIALTY MEDIA, Lavallette, N.J.) and resuspended in appropriate volume of the binding buffer (50 mM Tris pH 7.5, 5 mM MnCl2, 150 mM NaCl, 0.04 mg/ml bacitracin, 0.004 mg/ml leupeptin, 0.2 mg/ml BSA, 0.01 mM phosphoramidon) such that 200 ul of the cell suspension would give rise to about 10,000 cpm of specific ^125I-SP binding (approximately 50,000 to 200,000 cells). In the binding assay, 200 ul of cells were added to a tube containing 20 ul of 1.5 to 2.5 nM of ^125I-SP and 20 ul of unlabeled substance P or any other test compound. The tubes were incubated at 4° C. or at room temperature for 1 hour with gentle shaking. The bound radioactivity was separated from unbound radioactivity by GF/C filter (BRANDEL, Gaithersburg, Md.) which was pre-wetted with 0.1% polyethylenimine. The filter was washed with 3 ml of wash buffer (50 mM Tris pH 7.5, 5 mM MnCl2, 150 mM NaCl) three times and its radioactivity was determined by gamma counter. The activation of phospholipase C by NK1R may also be measured in CHO cells expressing the human NK1R by determining the accumulation of inositol monophosphate which is a degradation product of IP3. CHO cells are seeded in 12-well plate at 250,000 cells per well. After incubating in CHO media for 4 days, cells are loaded with 0.025 uCi/ml of ^3H-myoinositol by overnight incubation. The extracellular radioactivity is removed by washing with phosphate buffered saline. LiCl is added to the well at final concentration of 0.1 mM with or without the test compound, and incubation is continued at 37° C. for […]. Substance P is added to the well at final concentration of 0.3 nM to activate the human NK1R. After 30 min of incubation at 37° C., the media is removed and 0.1 N HCl is added. Each well is sonicated at 4° C. and extracted with CHCl3/methanol (1:1). The aqueous phase is applied to a 1 ml Dowex AG 1X8 ion exchange column. […]
One may read the IC50 as the concentration needed to halve the response being measured. Read a high IC50 as a need for much substance. With `Cc1ccccc1[C@H]1[C@@H]2CN(C(N)=O)C[C@H]2CCN1C(=O)N(C)[C@H](C)c1cc(C(F)(F)F)cc(C(F)(F)F)c1` [Example 11, (3aS,4R,7aS)-N^5-{(1R)-1-[3,5-bis(trifluoromethyl)phenyl]ethyl}-N^5-methyl-4-(2-methylphenyl)tetrahydro-1H-pyrrolo[3,4-c]pyridine-2,5(3H,4H)-dicarboxamide], the IC50 worked out at 0.06 nM.
For `Cc1ccccc1[C@H]1C2CN(C3=NC(=O)CO3)C[C@H]2CCN1C(=O)N(C)[C@H](C)c1cc(C(F)(F)F)cc(C(F)(F)F)c1` (some centres unmarked) [Example 12] the value was 0.043 nM; for `Cc1ccccc1[C@H]1C2CN(C3=CC(=O)OC3)C[C@H]2CCN1C(=O)N(C)[C@H](C)c1cc(C(F)(F)F)cc(C(F)(F)F)c1` (stereo partly drawn) [Example 13, (3aS,4R aS)-N-{(1R)-1-[3,5-bis(trifluoromethyl)phenyl]ethyl}-N-methyl-4-(2-methylphenyl)-2-(5-oxo-2,5-dihydrofuran-3-yl)octahydro-5H-pyrrolo[3,4-c]pyridine-5-carboxamide], 0.083 nM.
For `Cc1ccccc1[C@H]1[C@@H]2CN(C(C)C)C[C@H]2CCN1C(=O)N(C)[C@H](C)c1cc(C(F)(F)F)cc(C(F)(F)F)c1` [Example 14, (3aS,4R,7aS)-N-{(1R)-1-[3,5-bis(trifluoromethyl)phenyl]ethyl}-2-isopropyl-N-methyl-4-(2-methylphenyl)octahydro-5H-pyrrolo[3,4-c]pyridine-5-carboxamide] the value was 0.044 nM; for `Cc1ccccc1[C@H]1[C@@H]2CN(CC(N)=O)C[C@H]2CCN1C(=O)N(C)[C@H](C)c1cc(C(F)(F)F)cc(C(F)(F)F)c1` [Example 15, (3aS,4R,7aS)-2-(2-amino-2-oxoethyl)-N-{(1R)-1-[3,5-bis(trifluoromethyl)phenyl]ethyl}-N-methyl-4-(2-methylphenyl)octahydro-5H-pyrrolo[3,4-c]pyridine-5-carboxamide], 0.071 nM.
Next, `Cc1ccccc1[C@H]1[C@@H]2CN(CC(=O)O)C[C@H]2CCN1C(=O)N(C)[C@H](C)c1cc(C(F)(F)F)cc(C(F)(F)F)c1` [Example 16, [(3aS,4R,7aS)-5-{[{(1R)-1-[3,5-bis(trifluoromethyl)phenyl]ethyl}(methyl)amino]carbonyl}-4-(2-methylphenyl)octahydro-2H-pyrrolo[3,4-c]pyridin-2-yl]acetic acid]: 0.152 nM; `Cc1ccccc1[C@H]1[C@@H]2CN(C(=O)[C@H](C)O)C[C@H]2CCN1C(=O)N(C)[C@H](C)c1cc(C(F)(F)F)cc(C(F)(F)F)c1` [Example 17, (3aS,4R,7aS)-N-{(1R)-1-[3,5-bis(trifluoromethyl)phenyl]ethyl}-2-[(2S)-2-hydroxypropanoyl]-N-methyl-4-(2-methylphenyl)octahydro-5H-pyrrolo[3,4-c]pyridine-5-carboxamide]: 0.081 nM; `CC(=O)N1CC2[C@H](CCN(C(=O)N(C)[C@H](C)c3cc(C(F)(F)F)cc(C(F)(F)F)c3)[C@H]2c2ccccc2C)C1` (stereo partly drawn) [Example 18, (3aS,4R,7aS)-2-acetyl-N{(1R)-1-[3,5-bis(trifluoromethyl)phenyl]ethyl}-N-methyl-4-(2-methylphenyl)octahydro-5H-pyrrolo[3,4-c]pyridine-5-carboxamide]: 0.068 nM.
The molecule `Cc1ccccc1[C@H]1[C@@H]2CN(C(=O)C3CCC(=O)N(C)C3)C[C@H]2CCN1C(=O)N(C)[C@H](C)c1cc(C(F)(F)F)cc(C(F)(F)F)c1` (stereo partly drawn) [Example 19, (3aS,4R,7aS)-N-{(1R)-1-[3,5-bis(trifluoromethyl)phenyl]ethyl}-N-methyl-2-[(1-methyl-6-oxopiperidin-3-yl)carbonyl]-4-(2-methylphenyl)octahydro-5H-pyrrolo[3,4-c]pyridine-5-carboxamide] registered an IC50 of 0.09 nM.
In turn, `Cc1ccccc1[C@H]1[C@@H]2CN(C(=O)C3CCN(C(N)=O)CC3)C[C@H]2CCN1C(=O)N(C)[C@H](C)c1cc(C(F)(F)F)cc(C(F)(F)F)c1` [Example 20, (3aS,4R,7aS)-2-{[1-(aminocarbonyl)piperidin-4-yl]carbonyl}-N-{(1R)-1-[3,5-bis(trifluoromethyl)phenyl]ethyl}-N-methyl-4-(2-methylphenyl)octahydro-5H-pyrrolo[3,4-c]pyridine-5-carboxamide] registered an IC50 of 0.185 nM.
Molecule `Cc1ccccc1[C@H]1[C@@H]2CN(C3CCOCC3)C[C@H]2CCN1C(=O)N(C)[C@H](C)c1cc(C(F)(F)F)cc(C(F)(F)F)c1` [Example 21, (3aS,4R,7aS)-N-{(1R)-1-[3,5-bis(trifluoromethyl)phenyl]ethyl}-N-methyl-4-(2-methylphenyl)-2-(tetrahydro-2H-pyran-4-yl)octahydro-5H-pyrrolo[3,4-c]pyridine-5-carboxamide] showed an IC50 of 0.085 nM.
Next, `CC(=O)N1CCC(N2C[C@H]3CCN(C(=O)N(C)[C@H](C)c4cc(C(F)(F)F)cc(C(F)(F)F)c4)[C@@H](c4ccccc4C)[C@@H]3C2)CC1` [Example 22, (3aS,4R,7aS)-2-(1-acetylpiperidin-4-yl)-N-{(1R)-1-[3,5-bis(trifluoromethyl)phenyl]ethyl}-N-methyl-4-(2-methylphenyl)octahydro-5H-pyrrolo[3,4-c]pyridine-5-carboxamide]: 0.089 nM.
Next, `Cc1ccccc1[C@H]1C2CN(CC(C)(C)CO)C[C@H]2CCN1C(=O)N(C)[C@H](C)c1cc(C(F)(F)F)cc(C(F)(F)F)c1` (some centres unmarked) [Example 23]: 0.094 nM; `Cc1cc(F)ccc1[C@H]1[C@@H]2CN(Cc3ccccc3)C[C@H]2CCN1C(=O)N(C)[C@H](C)c1cc(C(F)(F)F)cc(C(F)(F)F)c1` [Example 25, (3aS,4R,7aS)-2-benzyl-N-{(1R)-1-[3,5-bis(trifluoromethyl)phenyl]ethyl}-4-(4-fluoro-2-methylphenyl)-N-methyloctahydro-5H-pyrrolo[3,4-c]pyridine-5-carboxamide]: 0.052 nM.
Molecule `Cc1cc(F)ccc1[C@H]1C2CNC[C@H]2CCN1C(=O)N(C)[C@H](C)c1cc(C(F)(F)F)cc(C(F)(F)F)c1` (stereo partly drawn) [Example 26, (3aS,4R,7aS)-N-{(1R)-1-[3,5-bistrifluoromethyl)phenyl]ethyl}-4-(4-fluoro-2-methylphenyl-N-methyloctahydro-5H-pyrrolo[3,4-c]pyridine-5-carboxamide] had an IC50 of 0.031 nM. Compared with the last molecule, the IC50 is about 1.7-fold lower.
`Cc1cc(F)ccc1[C@H]1[C@@H]2CN(C3=NC(=O)CO3)C[C@H]2CCN1C(=O)N(C)[C@H](C)c1cc(C(F)(F)F)cc(C(F)(F)F)c1` [Example 28, (3aS,4R,7aS)-N-{(1R)-1-[3,5-bis(trifluoromethyl)phenyl]ethyl}-4-(4-fluoro-2-methylphenyl)-N-methyl-2-(4-oxo-4,5-dihydro-1,3-oxazol-2-yl)octahydro-5H-pyrrolo[3,4-c]pyridine-5-carboxamide] displayed an IC50 of 0.077 nM.
Next, `Cc1cc(F)ccc1[C@H]1C2CN(C3=CC(=O)OC3)C[C@H]2CCN1C(=O)N(C)[C@H](C)c1cc(C(F)(F)F)cc(C(F)(F)F)c1` (some centres unmarked) [Example 29]: 0.115 nM.
